{"source": "patent US9272013B2", "about": "“Methods for treating combined radiation and thermal injury” (University of Southern California, priority 2010, dated 2016)", "assay_type_in_all_cases": "in vivo", "key": {"[1]": {"system": "Guinea Pig Model of CRBI (200 cGy TBI combined with 18 mm burn injuries)", "test": "NorLeu^3-A(1-7) dose-response study, survival in guinea pig model of CRBI", "details": "1 μg/wound/day and above, applied to site of thermal injury daily through day 14; 200 cGy TBI + 18 mm burns", "procedure": "(§1) In a subsequent study, 200 cGy TBI was combined with 18 mm burn injuries in a NorLeu^3-A(1-7) dose-response study. On the day of thermal injury and daily through day 14, various concentrations of NorLeu^3-A(1-7) (0-300 μg/day) were applied to the site of thermal injury (FIG. 3).\n(§2) For these studies, male Hartley guinea pigs weighing approximately 500 grams were purchased from Charles Rivers Laboratory (Charles Rivers, Mass.). The guinea pigs were housed in a 12:12 hour, light:dark, cycle in the USC Vivaria. The animals received 200 cGy TBI using a Cesuim 137 irradiator. One to two hours thereafter, the guinea pigs received a thermal injury. The thermal injuries were produced and post-operative care performed as described in Rodgers et al., 1997a,b, 2001. Briefly, after anesthesia, two burns were produced on each guinea pig with an 18 mm diameter solid brass rod, which was warmed in a 75° C. water bath. One end of the brass rod was placed on the back of the guinea pig for 50 seconds.\nEach burn was treated with 2% HEC (vehicle for topical drug application) with and without NorLeu^3-A(1-7) in 0.05 mol/L phosphate buffer, pH 6.5, and was individually dressed. Treatment was started at various times after TBI and thermal injury as indicated below."}, "[2]": {"system": "Guinea Pig Model of CRBI (200 cGy TBI combined with 18 mm burn injuries)", "test": "Proliferating cells at the edge of the burn (immunohistochemical staining, MIB-1) in guinea pig CRBI model", "details": "topical, day 14, 200 cGy TBI + 18 mm burns", "procedure": "as §1\nFor these studies, male Hartley guinea pigs weighing approximately 500 grams were purchased from Charles Rivers Laboratory (Charles Rivers, Mass.). The guinea pigs were housed in a 12:12 hour, light:dark, cycle in the USC Vivaria. The animals received 200 cGy TBI using a Cesuim 137 irradiator. One to two hours thereafter, the guinea pigs received a thermal injury. […]\nOn day 14 after thermal injury, the guinea pigs was euthanized, the burned areas will be excised en bloc. […] Healing was measured by the number of proliferating cells at the injury site. […]\nWith an Olympus Vanox-S AH-2 dissecting microscope and a magnification power of 100×, each section of the biopsy specimen was separated into either areas on the burn edge or the actual burn areas. […] In each section four to six consecutive medium-power fields (mpf, 100×) were evaluated. […] All stained cells located within the hair follicles of the biopsy sections were counted. […] Each field was then determined to be either a section on the edge of the burn or a part of the burn area itself. […]"}, "[3]": {"system": "Guinea Pig Model of CRBI (200 cGy TBI and thermal injury 2 hours later)", "test": "Time point at which treatment can be initiated, survival in guinea pig CRBI model", "details": "10 or 100 μg/daily", "procedure": "A second study was conducted in this model to assess the length of time that treatment can be delayed and still reduce mortality. In this study, the guinea pigs underwent 200 cGy TBI and thermal injury 2 hours later. Treatment with placebo was started on day 0. Treatment with 10 or 100 μg/daily NorLeu^3-A(1-7) was initiated on day 0, 1, 2, 3 or 4. When treatment was started at days 0, 1, 2, or 3 survival was increased to approximately 40-60% versus 14% in the placebo-treated animals (FIG. 6-9).\nas §2\nEach burn was treated with 2% HEC (vehicle for topical drug application) with and without NorLeu^3-A(1-7) in 0.05 mol/L phosphate buffer, pH 6.5, and was individually dressed. […]"}, "[4]": {"system": "mouse model of CRBI (10 sec scald at 70 C following 600 cGy TBI)", "test": "Apoptosis in dermal tissue by TUNEL assay in mouse thermal injury / CRBI model", "details": "daily 100 ul per wound at 1 mg/ml, day 7", "procedure": "Mice received thermal injury only received a 7% total body surface area scald at 70 C for 10 seconds (under ketamine/xylazine anesthesia). Mice that received the combined injury received total body irradiation with a cesium irradiator at a dose of 6 Gy and 2 hours later received the same scald injury. For the data presented, the treatments were started immediately after the scald injury and the wound were bandaged with Tegaderm. Treatment was daily with 100 ul give per wound at a concentration of 1 mg/ml. The animals were euthanized on day 7. Apoptosis in the dermal tissue was measured by TUNEL assay. NorLeu3-A(1-7) provides additional systems to mitigate delayed wound healing with the involvement of radiation."}}, "note": "“Also recorded” adds a separate entry of the source. Where no end group is shown, it is not given here. [ ]: non-standard residue; d: D form. Nle = CCCC[C@H](N)C(=O)O"}
{"substance": "Asp-Arg-Nle-Tyr-Ile-His-Pro (DR[Nle]YIHP) [NorLeu^3-A(1-7)]", "values": [{"measurement": "mortality associated with combined injury", "setting": "[1]", "result": "reduced mortality"}, {"measurement": "number of proliferating cells in the hair follicle bulge at the edge of the wound", "setting": "[2]; all doses (except 3 μg/wound/day)", "result": "increases proliferating cells; also recorded: increased the number of proliferating cells"}, {"measurement": "number of (proliferating) cells in the basal keratinocyte layer at the edge of the burn", "setting": "[2]; doses of 10 μg/daily and above", "result": "increases proliferating cells; also recorded: increase in the number of cells"}, {"measurement": "effectiveness (survival) with delayed treatment", "setting": "[3]; initiation of treatment delayed until day 4", "result": "effectiveness was reduced"}, {"measurement": "survival", "setting": "[3]; treatment started at days 0, 1, 2, or 3 after CRBI, versus 14% in placebo-treated animals", "result": "40-60%"}, {"measurement": "apoptosis in the dermis and subdermis of thermal injuries", "setting": "[4]; mouse CRBI: 10 sec scald at 70 C following 600 cGy TBI", "result": "reduces apoptosis"}, {"measurement": "apoptosis at the site of thermal injury alone", "setting": "[4]; mouse thermal injury only (no TBI): 7% TBSA scald at 70 C for 10 seconds", "result": "not at the site of thermal injury alone"}]}
